Species on record: Rattus norvegicus
Assay: Open TG-GATES - Regimen: Single
Assay type: toxicity, organism-based, Sprague-Dawley
Parameters: regimen Single, gender Male, age 6 weeks
Settings: in vivo, po, 0 mg/kg, route gavage, dose level Control; for APTT / Bas / Eos / Fbg / Hb / Ht / Lym / MCH / MCHC / MCV / Mono / Neu / PT / Plat / RBC / Ret / WBC: tissue Blood; for KIDNEY_L / KIDNEY_R / KIDNEY_TOTAL: tissue Kidney; for LIVER: tissue Liver; for A/G / ALP / ALT / AST / BUN / CRE / Ca / Cl / DBIL / GLC / IP / K / LDH / Na / PL / RALB / TBIL / TC / TG / TP / gamma-GTP: tissue Plasma

SMILES: C[C@](N)(Cc1ccc(O)c(O)c1)C(=O)O [METHYLDOPA]
- TERMINAL_BW (3 h): 189.8 g
- APTT (3 h): 16.9 s
- Bas (3 h): 0%
- Eos (3 h): 0.8%
- Fbg (3 h): 253.4 mg/dL
- Hb (3 h): 13.1 g/dL
- Ht (3 h): 39.1%
- Lym (3 h): 75%
- MCH (3 h): 22.2 pg
- MCHC (3 h): 33.4%
- MCV (3 h): 66.5 fL
- Mono (3 h): 3.2%
- Neu (3 h): 20.4%
- PT (3 h): 12.3 s
- Plat (3 h): 118.6 x10_4/uL
- RBC (3 h): 588.6 x10_4/ul
- Ret (3 h): 11%
- WBC (3 h): 80.9 x10_2/uL
- KIDNEY_L (3 h): 0.8 g
- KIDNEY_R (3 h): 0.8 g
- KIDNEY_TOTAL (3 h): 1.6 g
- LIVER (3 h): 8 g
- A/G (3 h): 0.9
- ALP (3 h): 1671.4 IU/L
- ALT (3 h): 54.6 IU/L
- AST (3 h): 84.8 IU/L
- BUN (3 h): 10 mg/dL
- CRE (3 h): 0.2 mg/dL
- Ca (3 h): 11.6 mg/dL
- Cl (3 h): 106.8 meq/L
- DBIL (3 h): 0.022 mg/dL
- GLC (3 h): 164.4 mg/dL
- IP (3 h): 9.4 mg/dL
- K (3 h): 4.6 meq/L
- LDH (3 h): 61.2 IU/L
- Na (3 h): 141.8 meq/L
- PL (3 h): 147.2 mg/dL
- RALB (3 h): 2.6 g/dL
- TBIL (3 h): 0.08 mg/dL
- TC (3 h): 88 mg/dL
- TG (3 h): 68.4 mg/dL
- TP (3 h): 5.6 g/dL
- gamma-GTP (3 h): 1.2 IU/L
- TERMINAL_BW (6 h): 187.9 g
- APTT (6 h): 17 s
- Bas (6 h): 0%
- Eos (6 h): 1%
- Fbg (6 h): 266.8 mg/dL
- Hb (6 h): 13.4 g/dL
- Ht (6 h): 40.1%
- Lym (6 h): 70.4%
- MCH (6 h): 21.6 pg
- MCHC (6 h): 33.5%
- MCV (6 h): 64.5 fL
- Mono (6 h): 3.8%
- Neu (6 h): 24.4%
- PT (6 h): 12.4 s
- Plat (6 h): 120.7 x10_4/uL
- RBC (6 h): 622.2 x10_4/ul
- Ret (6 h): 9.7%
- WBC (6 h): 82.2 x10_2/uL
- KIDNEY_L (6 h): 0.8 g
- KIDNEY_R (6 h): 0.8 g
- KIDNEY_TOTAL (6 h): 1.6 g
- LIVER (6 h): 7.3 g
- A/G (6 h): 0.9
- ALP (6 h): 1652.4 IU/L
- ALT (6 h): 45.8 IU/L
- AST (6 h): 74 IU/L
- BUN (6 h): 8.4 mg/dL
- CRE (6 h): 0.2 mg/dL
- Ca (6 h): 11.2 mg/dL
- Cl (6 h): 109 meq/L
- DBIL (6 h): 0.014 mg/dL
- GLC (6 h): 177.6 mg/dL
- IP (6 h): 10.6 mg/dL
- K (6 h): 4.6 meq/L
- LDH (6 h): 54.2 IU/L
- Na (6 h): 143.4 meq/L
- PL (6 h): 128.4 mg/dL
- RALB (6 h): 2.6 g/dL
- TBIL (6 h): 0.076 mg/dL
- TC (6 h): 81.2 mg/dL
- TG (6 h): 43 mg/dL
- TP (6 h): 5.6 g/dL
- gamma-GTP (6 h): 1.2 IU/L
- TERMINAL_BW (9 h): 189.5 g
- APTT (9 h): 17.4 s
- Bas (9 h): 0%
- Eos (9 h): 1%
- Fbg (9 h): 242 mg/dL
- Hb (9 h): 12.7 g/dL
- Ht (9 h): 37.7%
- Lym (9 h): 75.4%
- MCH (9 h): 21.7 pg
- MCHC (9 h): 33.7%
- MCV (9 h): 64.2 fL
- Mono (9 h): 2.4%
- Neu (9 h): 20.8%
- PT (9 h): 13.6 s
- Plat (9 h): 112.1 x10_4/uL
- RBC (9 h): 588.8 x10_4/ul
- Ret (9 h): 10.4%
- WBC (9 h): 74.2 x10_2/uL
- KIDNEY_L (9 h): 0.8 g
- KIDNEY_R (9 h): 0.8 g
- KIDNEY_TOTAL (9 h): 1.7 g
- LIVER (9 h): 6.9 g
- A/G (9 h): 0.9
- ALP (9 h): 1737.2 IU/L
- ALT (9 h): 44.4 IU/L
- AST (9 h): 77.2 IU/L
- BUN (9 h): 10.2 mg/dL
- CRE (9 h): 0.1 mg/dL
- Ca (9 h): 10.9 mg/dL
- Cl (9 h): 108.2 meq/L
- DBIL (9 h): 0.014 mg/dL
- GLC (9 h): 182.6 mg/dL
- IP (9 h): 11 mg/dL
- K (9 h): 4.4 meq/L
- LDH (9 h): 88 IU/L
- Na (9 h): 143.2 meq/L
- PL (9 h): 114.8 mg/dL
- RALB (9 h): 2.4 g/dL
- TBIL (9 h): 0.076 mg/dL
- TC (9 h): 74.4 mg/dL
- TG (9 h): 30.6 mg/dL
- TP (9 h): 5.1 g/dL
- gamma-GTP (9 h): 1.2 IU/L
- TERMINAL_BW (24 h): 194.8 g
- APTT (24 h): 17 s
- Bas (24 h): 0%
- Eos (24 h): 1%
- Fbg (24 h): 237.6 mg/dL
- Hb (24 h): 13 g/dL
- Ht (24 h): 38.2%
- Lym (24 h): 75.8%
- MCH (24 h): 22 pg
- MCHC (24 h): 34.1%
- MCV (24 h): 64.4 fL
- Mono (24 h): 3.4%
- Neu (24 h): 19.4%
- PT (24 h): 12.8 s
- Plat (24 h): 113.1 x10_4/uL
- RBC (24 h): 594.4 x10_4/ul
- Ret (24 h): 9.5%
- WBC (24 h): 77.2 x10_2/uL
- KIDNEY_L (24 h): 0.9 g
- KIDNEY_R (24 h): 0.9 g
- KIDNEY_TOTAL (24 h): 1.8 g
- LIVER (24 h): 8.8 g
- A/G (24 h): 0.9
- ALP (24 h): 1858.4 IU/L
- ALT (24 h): 55.2 IU/L
- AST (24 h): 83 IU/L
- BUN (24 h): 13 mg/dL
- CRE (24 h): 0.2 mg/dL
- Ca (24 h): 11 mg/dL
- Cl (24 h): 107.2 meq/L
- DBIL (24 h): 0.008 mg/dL
- GLC (24 h): 183.6 mg/dL
- IP (24 h): 7.8 mg/dL
- K (24 h): 4.3 meq/L
- LDH (24 h): 69.8 IU/L
- Na (24 h): 142 meq/L
- PL (24 h): 128.6 mg/dL
- RALB (24 h): 2.5 g/dL
- TBIL (24 h): 0.062 mg/dL
- TC (24 h): 72.6 mg/dL
- TG (24 h): 58.2 mg/dL
- TP (24 h): 5.3 g/dL
- gamma-GTP (24 h): 1 IU/L
